Assay results: patent US20030138429A1, “Compositions and methods for inhibiting metastasis” (priority 2001, published 2003)

Legend:
[1] = system: 1-LN cells; experiment: MMP-9 activity in serum-free culture medium of 1-LN cells (quantitative gelatin zymography); format: cell-based, human; conditions: for Active MMP-9: 24 h; for MMP-9 EXPRESSION Secretion: Yes/No
Experimental: Gelatin Zymography—Protein samples were electrophoresed on gelatin-containing 0.75 mm thick 10% polyacrylamide gels in the presence of SDS under nonreducing conditions. After completion of the electrophoretic run, the gels were incubated with two changes of 2.5% Triton X-100 for 1 h, followed by incubation for 18 h at 37° C. in 0.1 M glycine-NaOH, pH 8.3, containing 1 mM CaCl2, and […], before staining with Coomassie Brilliant Blue R-250 to visualize the lysis bands.
MMP-9 Activity in Solution—MMP-9 activity was measured in tissue culture supernatants by quantitative zymography using as a standard MMP-9 purified by affinity chromatography on gelatin-Sepharose from 1-LN cell conditioned medium (10 liters). Conditioned medium (50 μl), from 1-LN cell monolayers in 48 well culture plates (1.7×10^6 cells/well) incubated with Pg 2 glycoforms and/or inhibitors of Pg binding or activation, were electrophoresed on gelatin-containing gels and the degree of lysis was quantified using a Gelman ACD-15 Automatic Computing Densitometer (Gelman Instrument Company, Ann Arbor, Mich.). Values were determined by integrating the density of the selected bands and expressed in units×mm^2. Each gel was scanned three times and the average value of the integrated density of the bands was used to determine levels of MMP-9 from calibration curves constructed with purified active MMP-9 electrophoresed under the same conditions. The statistical analysis of the data was performed on an IBM 433 DX/S computer using the program SYSTAT® for Windows 95. The statistical significance of differences between means was evaluated by Student's t-test. MMP-9 was positively identified in conditioned medium by electrophoretic separation in 10% SDS-polyacrylamide gels (SDS-PAGE), electroblot of the electrophoresed proteins to nitrocellulose membranes and reaction with an anti-MMP-9 mAb (1 μg/ml) followed by reaction with a secondary alkaline phosphatase conjugated anti-mouse IgG. Detection was performed by reaction with the alkaline phosphatase substrate 5-bromo-4-chloro-3-indolyl phosphate in the presence of nitroblue tetrazolium (1 mM each) in 10 mM Tris-HCl, pH 8.5.
Effect of Pg on the Expression of MMP-9 by 1-LN Cells—Cells were seeded into 48-well culture plates and grown in RPMI 1640 containing 10% fetal bovine serum. Confluent monolayers were then incubated for 24 h with quiescent culture medium containing RPMI 1640 and 0.5% fetal bovine serum. Each individual Pg 2 glycoform (0.1 μM) was added in triplicate to cell monolayers in 300 μl of serum-free RPMI 1640 and incubated for 24 h at 37° C. Culture medium was collected to measure secretion of MMP-9 as described under Experimental Procedures. Prior to analyses of the MMP-9 secreted into the medium by 1-LN cells in the presence of individual Pg 2 glycoforms, we purified MMP-9 from conditioned medium (5 liters) by the technique of Masure et al.. […] A similar analysis of the Mr˜95,000 protein yielded the sequence APRQRQ, corresponding to the amino-terminal sequence of proMMP-9. […] We then proceeded to analyze the MMP-9 secreted into the medium by 1-LN cells incubated with each individual Pg 2 glycoform in serum-free culture medium, using the purified MMP-9 as a standard for quantification by gelatin zymography. These analyses (FIG. 7A) show a major band of active protein with a Mr˜85,000. […] Samples of these conditioned media were also subjected to SDS-PAGE under reducing conditions, electroblotted to nitrocellulose membranes and then reacted with an anti-MMP-9 mAb (FIG. 7B). […] A 4-fold decrease in the production of MMP-9 by cells co-incubated with anti-DPP IV mAb 236.3 and Pg 2ε (p<0.001) (Table II) is clearly observed in the conditioned medium (Lane 6 on FIGS. 8A and 8B, respectively).

[2] = system: 1-LN cells; experiment: [Ca2+]i response of 1-LN cells (Fura-2/AM digital imaging microscopy); format: cell-based, human; conditions: for [Ca^2+]i Increase: Yes/No; for [Ca2+]i response after binding of glycoform: glycoform 0.1 μM, in words
Experimental: Measurement of Intracellular Calcium Levels—Cystolic free calcium [Ca^2+]i, was measured by Digital Imaging Microscopy (DIM) using the fluorescent indicator Fura-2/AM as previously described.
[Ca^2+]i Response to Pg 2 Glycoforms Binding on the Surface of 1-LN Cells—We measured changes in [Ca^2+]i after binding of each individual Pg 2 glycoform to the surface of 1-LN cells. […] Similarly, cells were incubated at 37° C. for 1 h with anti-u-PA or anti-p IgGs (100 μg/ml) which inhibit enzymatic activity prior to addition of the highly sialylated glycoforms (Pgs 2γ, 2δ, and 2ε).

[3] = SFM + 6-AHA (100 nM) + glycoform 0.1 μM
[4] = SFM + L-lac (100 mM) + glycoform 0.1 μM
[5] = SFM + glycoform 0.1 μM, no additive, 37° C.
[6] = SFM + DPP IV-Ab (50 μg/ml) + glycoform 0.1 μM

Compound	Active MMP-9 ([1]; SFM + additive alone, no Pg 2 glycoform)	Decrease in the production of MMP-9 ([1]; cells co-incubated with Pg 2ε, L-lactose 100 mM, anti-DPP IV mAb)	[Ca^2+]i Increase [2]	[Ca2+]i response after binding of glycoform [2]	Active MMP-9 [1, 3]	Active MMP-9 [1, 4]	Active MMP-9 [1, 5]	MMP-9 EXPRESSION Secretion [1]	Active MMP-9 [1, 6]	Stimulation of active MMP-9 secreted ([1]; compared to cells with other Pg 2 glycoforms or culture medium, p<0.001)
OC[C@@H]1O[C@H](O[C@@H]2[C@@H](O)[C@H](O)C(O)O[C@H]2CO)[C@@H](O)[C@H](O)[C@@H]1O (stereo partly drawn) [L-lactose, reference compound]	0.15 ± 0.03 ng/mL	12 fold								
Pg 2α: glycoform of human plasminogen type 2 purified from plasma; 1.3 mol sialic acid/mol Pg			No	did not produce any changes	0.59 ± 0.17 ng/mL	0.11 ± 0.02 ng/mL	0.59 ± 0.16 ng/mL	No		
Pg 2β: glycoform of human plasminogen type 2 purified from plasma; 2.2 mol sialic acid/mol Pg			No	did not produce any changes	0.5 ± 0.13 ng/mL	0.17 ± 0.04 ng/mL	0.59 ± 0.13 ng/mL	No		
Pg 2γ: glycoform of human plasminogen type 2 purified from plasma; 2.95 mol sialic acid/mol Pg			Yes	elicited a [Ca^2+]i response	0.63 ± 0.21 ng/mL	0.15 ± 0.03 ng/mL	0.60 ± 0.17 ng/mL	No	0.58 ± 0.12 ng/mL	
Pg 2δ: glycoform of human plasminogen type 2 purified from plasma; 5.77 mol sialic acid/mol Pg			Yes	elicited a [Ca^2+]i response	0.57 ± 0.14 ng/mL	0.18 ± 0.04 ng/mL	0.62 ± 0.18 ng/mL	No	0.56 ± 0.11 ng/mL	
Pg 2ε: glycoform of human plasminogen type 2 purified from plasma; 5.34 mol sialic acid/mol Pg			Yes	elicited a [Ca^2+]i response	1.82 ± 0.23 ng/mL	0.14 ± 0.05 ng/mL	1.80 ± 0.21 ng/mL	Yes	0.49 ± 0.14 ng/mL	3 fold
Pg 2φ: glycoform of human plasminogen type 2 purified from plasma; 13.65 mol sialic acid/mol Pg				No response	0.57 ± 0.11 ng/mL	0.11 ± 0.02 ng/mL	0.63 ± 0.14 ng/mL			
